SMILES strings stand for the structures.

For series [1] the following is noted: physiological conditions; demetalation e.g. by apo-transferrin; cited from earlier work.
Series [2] relates to embryonated ostrich egg. Briefly: Administration in ostrich egg and PET/CT examination (in ovo test). The settings on record: in vivo in the incubated egg, approx. 10 MBq in PBS injected intravascularly. As to the method:
The accumulation in the liver of the compounds according to the invention can be examined in a so-called ovo test, i.e. in vivo in an incubated ostrich egg. […] 2. Administration in Ostrich Egg and PET/CT Examination To carry out an intravascular injection in an embryonic egg, it is first necessary to find an […] blood vessel. This is done using a light-intensive […] lamp (Tempo No. 119, Brecker Ltd. & Co. KG, Ruethen, Germany or Powerlux […], Lyon Technologies Inc., Chula Vista, Calif., USA), with which the egg is illuminated through the eggshell in similar manner to a diaphanoscopy. After locating a large-caliber vessel, an approximately 2.5×5 cm rectangular piece is machined from the approximately 2 mm thick egg shell (Dremel® 3000, Dremel Europe-Bosch Powertools B.V., Breda, the Netherlands). Particular care must be taken to maintain the intactness of the inner membrane of the eggshell, which corresponds to the chorioallantoic membrane (CAM). After removing the eggshell lid-again using the […] lamp-the yolk vessel is punctured with a narrow 27G cannula and this is fixed to the eggshell with adhesive strips. The access thus created now allows both CT contrast media and radiopharmaceuticals to be injected via a short length of plastic tubing (Smiths MedicalTM 800/100/100 Smiths, Smiths Medical International Ltd, Ashford, Great Britain). […]

Series [3] in a line: Stability / storability of the ligands as labeling precursors. The class given is physicochemical.

Consider `CCOc1ccc(C[C@@H](CN(CCN(CC(=O)O)CC(=O)O)CC(=O)O)N(CC(=O)O)CC(=O)O)cc1` [EOB-DTPA], for which, in series [1], the “stability of the 68Ga complex of the ligand” value is on record as “do not form sufficiently stable ^68Ga complexes”. With `CCc1cccc(CC)c1NC(=O)CN(CC(=O)O)CC(=O)O` [EHIDA], the “stability of the 68Ga complex of the ligand” value in series [1] is given as “do not form sufficiently stable ^68Ga complexes”.

For `CCOc1ccc(CNC2CN(Cc3ccc(OCC)cc3[O-])CCN(Cc3ccc(OCC)cc3[O-])C2)c([O-])c1.[68Ga+3]` [^68Ga-[TEOHB-DAZA], ^68Ga[tris-N,N′,N″(4-ethoxy-2-hydroxybenzyl)-1,4-diazepan-6-amine]], the “accumulation in the liver” value in series [2] is listed as “almost exclusive accumulation in the liver”.

Turning to `CCOc1ccc(CNC2CN(Cc3ccc(OCC)cc3O)CCN(Cc3ccc(OCC)cc3O)C2)c(O)c1` [TEOHB-DAZA, tris-N,N′,N″(4-ethoxy-2-hydroxybenzyl)-1,4-diazepan-6-amine], the “stability of the ligand (storable as precursor for labeling with 68Ga or 64Cu)” value in series [3] is on record as “stable”. Same read-out and setting: to `COc1ccc(CNC2CN(Cc3ccc(OC)cc3O)CCN(Cc3ccc(OC)cc3O)C2)c(O)c1` [TMeOHB-DAZA, tris-N,N′,N″(4-methoxy-2-hydroxybenzyl)-1,4-diazepan-6-amine] belongs “stable”.

Source of the values: patent US11701439B2, “DAZA chelators as ligands in liver imaging” (X-NUCLEAR DIAGNOSTICS GMBH, priority 2017, dated 2023).
